Assay results taken from patent US5342922A, “Inhibitors of retroviral protease” (Washington University, priority 1989, dated 1994).
Read-outs that look alike come from different tables or passages of the source. Numbered stars: 1 amine (or outer) side, 2 acyl side, 3 side chain; on linkers, the order of the positions; unused ones are H or OH. Square brackets hold non-standard residues; d marks the D form. Peptide text beside a SMILES is read from it. LeuΨ(CH2N)Pro = CC(C)C[C@@H](CN1CCC[C@H]1C(=O)[*:2])N[*:1]; X1 = O=C([C@@H]1CCCN1C[C@H](Cc1ccc(O)cc1)N[*:1])[*:2]; X2 = O=C([C@@H]1CCCN1C[C@H](Cc1ccccc1)N[*:1])[*:2]; X3 = CCCC[C@@H](CN(C)[C@@H](CCCC)C(=O)[*:2])N[*:1]; X4 = C[C@@H](CN1CCC[C@H]1C(=O)[*:2])N[*:1]

How the values were obtained:
[1] = biological target: T1, HIV protease (Human immunodeficiency virus type 1 group M subtype B, UniProt P04585); assay: HIV protease assay, inhibition of cleavage of acetyl-Thr-Ile-Met-Met-Gln-Arg-NH2 (HPLC); format: biochemical, HIV-1
[2] = system: CD4+ human lymphocyte cells (H9 cells); conditions: preliminary
[3] = biological target: T1, HIV protease; assay: HIV protease assay, substrate cleavage (relative hydrolysis rates, Km, Vmax); format: biochemical, HIV-1; conditions: for Relative Rate: percent of standard substrate concentration cleaved in twenty minutes, relative to Ac-Thr-Ile-Met-Met-Gln-Arg-NH2 = 1.00
[4] = biological target: T1, HIV protease; conditions: Darke et al. 1988, cited from earlier work
[5] = affinities not fully characterized, classified by comparative inhibition studies, read-out: KI (affinity category)
[6] = in vitro inhibition of HIV protease, pH 6.5, 25°, read-out: KI

For `CCCC[C@@H](CN[C@@H](CCCC)C(=O)N[C@H](C(=O)N[C@H](C(N)=O)[C@@H](C)O)[C@@H](C)CC)NC(=O)[C@H](CCC(N)=O)NC(=O)[C@H](CCCNC(=N)N)NC(C)=O` [Ac--Arg--Gln--Nle-.PSI.[CH2 NH]--Nle--Ile--Thr--NH2], the Ki [1, 5] was 1 to 100 µM.

For `CCCC[C@@H](CN[C@@H](CCCC)C(=O)N[C@@H](CCC(N)=O)C(=O)N[C@@H](CCCNC(=N)N)C(N)=O)NC(=O)[C@@H](NC(=O)[C@H](NC(C)=O)[C@H](C)O)[C@@H](C)CC` [Ac--D--Thr--Ile--Nle-.PSI.[CH2 NH]--Nle--Gln--Arg--NH2], the Ki [1, 5] was 1 to 100 µM.

For `CC[C@H](C)[C@H](NC(=O)[C@@H]1CCCN1C[C@H](Cc1ccc(O)cc1)NC(=O)[C@H](CC(N)=O)NC(=O)[C@H](CCC(N)=O)NC(C)=O)C(=O)N[C@H](C(N)=O)C(C)C` [Ac--Gln--Asn--Tyr-.PSI.[CH2 N]--Pro--Ile--Val--NH2] (Ac-QN[X1]IV-NH2), the Ki [1, 6] was 17.2 µM and the “toxicity as measured by cell count” value [2] was “no apparent toxicity”.

With `CC(=O)NCC(=O)N[C@@H](CC(N)=O)C(=O)N[C@@H](Cc1ccc(O)cc1)CN1CCC[C@H]1C(=O)N[C@H](C(=O)N[C@@H](CCC(N)=O)C(N)=O)C(C)C` [Ac--Gly--Asn--Tyr-.PSI.[CH2 N]--Pro--Val--Gln--NH2] (Ac-GN[X1]VQ-NH2) the Ki [1, 5] was 1 to 100 µM.

With `CC(=O)N[C@@H](CC(C)C)C(=O)N[C@@H](C)C(=O)N[C@@H](C)CN1CCC[C@H]1C(=O)N[C@@H](CCC(N)=O)C(=O)N[C@@H](Cc1ccccc1)C(N)=O` [Ac--Leu--Ala--Ala-.PSI.[CH2 N]--Pro--Gln--Phe--NH2] (Ac-LA[X4]QF-NH2) the Ki [1, 5] was over 100 µM.

With `CC[C@H](C)[C@H](NC(=O)[C@@H]1CCCN1C[C@H](Cc1ccccc1)NC(=O)[C@H](CC(N)=O)NC(=O)[C@H](CC(C)C)NC(C)=O)C(=O)N[C@@H](CO)C(=O)O` [Ac--Leu--Asn--Phe-.psi.[CH2 N]--Pro--Ile--Ser--OH] (Ac-LN[X2]IS-OH) the Ki [1, 5] was 1 to 100 µM.

`CC[C@H](C)[C@H](NC(=O)[C@H](CCC(N)=O)NC(=O)[C@@H]1CCCN1C[C@H](Cc1ccccc1)NC(=O)[C@H](CC(N)=O)NC(=O)[C@H](Cc1ccccc1)NC(C)=O)C(N)=O` [Ac--Phe--Asn--Phe-.PSI.[CH2 N]--Pro--Gln--Ile--NH2] (Ac-FN[X2]QI-NH2) showed a Ki [1, 5] of 1 to 100 µM.

In the case of `CC[C@H](C)[C@H](NC(=O)[C@H](CCC(N)=O)NC(=O)[C@@H]1CCCN1C[C@H](Cc1ccccc1)NC(=O)[C@H](CC(N)=O)NC(=O)[C@H](Cc1ccccc1)NC(=O)[C@H](CO)NC(C)=O)C(N)=O` [Ac--Ser--Phe--Asn--Phe-.PSI.[CH2 N]--Pro--Gln--Ile--NH2] (Ac-SFN[X2]QI-NH2), the Ki [1, 5] is reported as 1 to 100 µM.

With `CCCC[C@@H](CN[C@@H](CC1CCCCC1)C(=O)N[C@@H](CCC(N)=O)C(=O)N[C@@H](CCCNC(=N)N)C(N)=O)NC(=O)[C@@H](NC(=O)[C@@H](NC(C)=O)[C@@H](C)O)[C@@H](C)CC` [Ac--Thr--Ile--Nle-.PSI.[CH2 NH]--Cha--Gln--Arg--NH2] the Ki [1, 5] was under 1 µM.

Compound `CCCC[C@@H](CN[C@H](C(=O)N[C@@H](CCC(N)=O)C(=O)N[C@@H](CCCNC(=N)N)C(N)=O)[C@@H](C)CC)NC(=O)[C@@H](NC(=O)[C@@H](NC(C)=O)[C@@H](C)O)[C@@H](C)CC` [Ac--Thr--Ile--Nle-.PSI.[CH2 NH]--Ile--Gln--Arg--NH2] has a Ki [1, 5] of under 1 µM.

In the case of `CCCC[C@@H](CN[C@@H](CCCC)C(=O)N[C@@H](CCC(N)=O)C(=O)N[C@@H](CCCNC(=N)N)C(N)=O)NC(=O)[C@@H](NC(=O)[C@@H](NC(C)=O)[C@@H](C)O)[C@@H](C)CC` [Ac--Thr--Ile--Nle-.PSI.[CH2 NH]--Nle--Gln--Arg--NH2], the “toxicity as measured by cell count” value [2] is reported as “no apparent toxicity”.

Compound `CCCC[C@@H](CN[C@@H](CCCC)C(=O)N[C@@H](CCC(N)=O)C(=O)N[C@H](CCCNC(=N)N)C(N)=O)NC(=O)[C@@H](NC(=O)[C@@H](NC(C)=O)[C@@H](C)O)[C@@H](C)CC` [Ac--Thr--Ile--Nle-.PSI.[CH2 NH]--Nle--Gln--D--Arg--NH2] has a Ki [1, 5] of 1 to 100 µM.

Compound `CCCC[C@@H](CN[C@@H](CCCC)C(=O)N[C@@H](CCC(N)=O)C(N)=O)NC(=O)[C@@H](NC(=O)[C@@H](NC(C)=O)[C@@H](C)O)[C@@H](C)CC` [Ac--Thr--Ile--Nle-.PSI.[CH2 NH]--Nle--Gln--NH2] has a Ki [1, 5] of 1 to 100 µM.

`CCCC[C@@H](CN[C@@H](CCCC)C(=O)N[C@@H](CCC(N)=O)C(=O)N[C@@H](CCC)C(N)=O)NC(=O)[C@@H](NC(=O)[C@@H](NC(C)=O)[C@@H](C)O)[C@@H](C)CC` [Ac--Thr--Ile--Nle-.PSI.[CH2 NH]--Nle--Gln--Nva--NH2] gave a Ki [1, 5] of 1 to 100 µM.

Work on `CCCC[C@@H](CN(C)[C@@H](CCCC)C(=O)N[C@@H](CCC(N)=O)C(=O)N[C@@H](CCCNC(=N)N)C(N)=O)NC(=O)[C@@H](NC(=O)[C@@H](NC(C)=O)[C@@H](C)O)[C@@H](C)CC` [Ac--Thr--Ile--Nle-.psi.[CH2 NH]--MeNle--Gln--Arg--NH2] (Ac-TI[X3]QR-NH2) yielded a Ki [1, 5] of over 100 µM.

Work on `CC[C@H](C)[C@H](NC(=O)[C@@H](NC(C)=O)[C@@H](C)O)C(=O)N[C@H](CN[C@@H](CC(C)C)C(=O)N[C@@H](CCC(N)=O)C(=O)N[C@@H](CCCNC(=N)N)C(N)=O)CC(C)C` [Ac--Thr--lle--Leu-.PSI.[CH2 NH]--Leu--Gln--Arg--NH2] yielded a Ki [1, 6] of 0.734 µM.

`CCCC[C@@H](CNC1(C(=O)N[C@@H](CCC(N)=O)C(=O)N[C@@H](CCCNC(=N)N)C(N)=O)CCCC1)NC(=O)[C@@H](NC(=O)[C@@H](NC(C)=O)[C@@H](C)O)[C@@H](C)CC` [Ac--Thr--lle--Nle-.PSI.[CH2 NH]--Cle--Gln--Arg--NH2] gave a Ki [1, 5] of over 100 µM.

For `CCCC[C@@H](CN[C@@H](CC(C)C)C(=O)N[C@@H](CCC(N)=O)C(=O)N[C@@H](CCCNC(=N)N)C(N)=O)NC(=O)[C@@H](NC(=O)[C@@H](NC(C)=O)[C@@H](C)O)[C@@H](C)CC` [Ac--Thr--lle--Nle-.PSI.[CH2 NH]--Leu--Gln--Arg--NH2], the Ki [1, 5] was under 1 µM.

Work on `CCCC[C@@H](CN[C@@H](Cc1ccccc1)C(=O)N[C@@H](CCC(N)=O)C(=O)N[C@@H](CCCNC(=N)N)C(N)=O)NC(=O)[C@@H](NC(=O)[C@@H](NC(C)=O)[C@@H](C)O)[C@@H](C)CC` [Ac--Thr--lle--Nle-.PSI.[CH2 NH]--Phe--Gln--Arg--NH2] yielded a Ki [1, 5] of under 1 µM.

For `CC(C)C[C@@H](CN1CCC[C@H]1C(=O)N[C@H](C(=O)N[C@@H](C)C(=O)O)C(C)C)NC(=O)[C@H](CC(N)=O)NC(=O)[C@H](CC(C)C)NC(=O)[C@@H](N)CO` [H2 N--Ser--Leu--Asn--Leu-.PSI.[CH2 N]--Pro--Val--Ala--OH] (H-SLN[LeuΨ(CH2N)Pro]VA-OH), the Ki [1, 6] was 13.1 µM.

With `CC[C@H](C)[C@H](NC(=O)[C@@H]1CCCN1C[C@H](Cc1ccccc1)NC(=O)[C@H](CC(N)=O)NC(=O)[C@H](CC(C)C)NC(=O)[C@@H](N)[C@@H](C)O)C(=O)N[C@@H](CO)C(=O)O` [H2 N--Thr--Leu--Asn--Phe-.PSI.[CH2 N]--Pro--Ile--Ser--OH] (H-TLN[X2]IS-OH) the Ki [1, 5] was 1 to 100 µM.

In the case of Aba--Thr--Ile--Nle--PnF--Gln--Arg--NH2, the “Relative Rate” value [3] is reported as 1.46.

In the case of Ac--Thr--Ile--Nle--Hle--Gln--Arg--NH2, the “Relative Rate” value [3] is reported as 0.95.

In the case of “Ac-QNYPIV-NH2 [Ac--Gln--Asn--Tyr--Pro--Ile--Val--NH2]”, the “Relative Rate” value [3] is reported as 0.04.

With “Ac-TIMMQR-NH2 [Ac--Thr--Ile--Met--Met--Gln--Arg--NH2]” the “Relative Rate” value [3] was 1.00 and the Vmax ([3]; substrate of HIV protease) was 725 nmol/min/mg.

For QNY-PIV, the “cleavage by HIV protease” value [4] is given as “failed to be cleaved”.

For SQNY-PI, the “cleavage by HIV protease” value [4] is given as “failed to be cleaved”.

For SQNY-PIV, the “cleavage rate relative to the octapeptide” value ([4]; of the rate of VSQNYPIV) is listed as 90%.

In the case of VSQNYPIV, the Km [4] is listed as 2500 µM.

For acetyl-QNY-PIV, the “cleavage by HIV protease” value [4] is given as “failed to be cleaved”.
